From patent US12077503B2, “Substituted cyclic amides and their use as herbicides” (FMC CORPORATION, priority 2015, dated 2024)

How the values were obtained:
Format in all cases: in vivo
[1] = test system: ducksalad (Heteranthera limosa); assay: Test B flooded paddy test; conditions: Heteranthera limosa, 250 g ai/ha, Flood; 0 to 100 scale where 0 is no effect and 100 is complete control; read-out: Ducksalad plant response rating
How it was run: (§1)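 2-leaf plants; pots flooded 3 cm over soil; cpd added to paddy water; depth held; greenhouse 13–15 d; visual rating vs controls, 0 = no effect, 100 = complete control.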

[2] = test system: barnyardgrass (Echinochloa crus-galli); assay: Test B flooded paddy test; conditions: Echinochloa crus-galli, 250 g ai/ha, Flood; 0 to 100 scale where 0 is no effect and 100 is complete control; read-out: Barnyardgrass plant response rating
How it was run: as §1

[3] = test system: sedge, umbrella (small-flower umbrella sedge, Cyperus difformis); assay: Test B flooded paddy test; conditions: Cyperus difformis, 250 g ai/ha, Flood; 0 to 100 scale where 0 is no effect and 100 is complete control; read-out: Sedge, Umbrella plant response rating
How it was run: as §1

rice (Oryra sativa) = assay: Test B flooded paddy test; conditions: Oryza sativa, 250 g ai/ha, Flood; 0 to 100 scale where 0 is no effect and 100 is complete control; read-out: Rice plant response rating
How it was run: as §1

[4] = test system: barnyardgrass (Echinochloa crus-galli); assay: Test A preemergence; conditions: Echinochloa crus-galli, pre-emergence, 240 h, Preemergence
How it was run: (§2)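 Seeds sprayed preemergence with a directed soil spray, or plants at 2 to 10 cm height and one- to two-leaf stage sprayed postemergence, with test chemicals in a non-phytotoxic solvent mixture containing surfactant, in loam soil–sand blend. Injury rated visually against untreated controls after about 10 d in greenhouse, 0 (no effect) to 100 (complete control).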

[5] = test system: pigweed (Amaranthus retroflexus); assay: Test A preemergence; conditions: Amaranthus retroflexus, pre-emergence, 240 h, Preemergence
Kochia (Kochia scoparia) [6] = assay: Test A preemergence; conditions: Bassia scoparia, pre-emergence, 240 h, Preemergence
How it was run: as §2

[7] = test system: ragweed (common ragweed, Ambrosia elatior); assay: Test A preemergence; conditions: Ambrosia artemisiifolia, pre-emergence, 240 h, Preemergence
How it was run: as §2

[8] = test system: ryegrass, Italian (Italian ryegrass, Lolium multiflorum); assay: Test A preemergence; conditions: Lolium multiflorum, pre-emergence, 240 h, Preemergence
How it was run: as §2

[9] = test system: giant foxtail (Setaria faberii); assay: Test A preemergence; conditions: Setaria faberi, pre-emergence, 240 h, Preemergence
How it was run: as §2

[10] = test system: barnyardgrass (Echinochloa crus-galli); assay: Test A postemergence; conditions: Echinochloa crus-galli, post-emergence, 240 h, Postemergence, read-out: Plant response rating, Barnyardgrass
How it was run: as §2

[11] = test system: blackgrass (Alopecurus myosuroides); assay: Test A postemergence; conditions: Alopecurus myosuroides, post-emergence, 240 h, Postemergence, read-out: Plant response rating, Blackgrass
How it was run: as §2

[12] = test system: pigweed (Amaranthus retroflexus); assay: Test A postemergence; conditions: Amaranthus retroflexus, post-emergence, 240 h, Postemergence, read-out: Plant response rating, Pigweed
How it was run: as §2

[13] = test system: Galium (catchweed bedstraw, Galium aparine); assay: Test A postemergence; conditions: Galium, post-emergence, 240 h, Postemergence, read-out: Plant response rating, Galium
How it was run: as §2

Kochia (Kochia scoparia) [14] = assay: Test A postemergence; conditions: Bassia scoparia, post-emergence, 240 h, Postemergence, read-out: Plant response rating, Kochia
How it was run: as §2

[15] = test system: ragweed (common ragweed, Ambrosia elatior); assay: Test A postemergence; conditions: Ambrosia artemisiifolia, post-emergence, 240 h, Postemergence, read-out: Plant response rating, Ragweed
How it was run: as §2

[16] = test system: ryegrass, Italian (Italian ryegrass, Lolium multiflorum); assay: Test A postemergence; conditions: Lolium multiflorum, post-emergence, 240 h, Postemergence, read-out: Plant response rating, Ryegrass, Italian
How it was run: as §2

corn (Zea mays) = assay: Test A postemergence; conditions: Zea mays, post-emergence, 240 h, Postemergence
How it was run: as §2

[17] = test system: wheat (Triticum aestivum); assay: Test A postemergence; conditions: Triticum aestivum, post-emergence, 240 h, Postemergence, read-out: Plant response rating, Wheat
How it was run: as §2

[18] = test system: giant foxtail (Setaria faberii); assay: Test A postemergence; conditions: Setaria faberi, post-emergence, 240 h, Postemergence, read-out: Plant response rating, Foxtail, Giant
How it was run: as §2

[19] = 125 g ai/ha, visual injury after approximately 10 d, 0 to 100 scale where 0 is no effect and 100 is complete control
[20] = 31 g ai/ha, visual injury after approx. 10 d, 0 to 100 scale, 0 no effect, 100 complete control

CC(C)=CC1CNC(=O)C1C(=O)Nc1ccccc1F (stereo not drawn) [Compound 1011]
0%: pest or weed control at 250 g/ha [1] | pest or weed control at 250 g/ha [2] | pest or weed control at 250 g/ha [3] | pest or weed control at 250 g/ha (rice (Oryra sativa)) | pest or weed control at 125 g/ha ([4]; 125 g ai/ha, visual injury rating after approximately 10 d, read-out: Barnyardgrass plant response rating (0 to 100 scale, 0 is no effect, 100 is complete control)) | pest or weed control at 31 g/ha ([4]; 31 g ai/ha, 0 to 100 scale (0 no effect, 100 complete control), read-out: Plant response rating, Barnyardgrass) | pest or weed control at 31 g/ha ([5]; 31 g ai/ha, 0 to 100 scale where 0 is no effect and 100 is complete control, read-out: Pigweed plant response rating) | pest or weed control at 125 g/ha ([5]; 125 g ai/ha, visual injury rating after approximately 10 d, read-out: Pigweed plant response rating (0 to 100 scale, 0 is no effect, 100 is complete control)) | pest or weed control at 31 g/ha (Kochia (Kochia scoparia) [6]; 31 g ai/ha, 0 to 100 scale where 0 is no effect and 100 is complete control, read-out: Kochia plant response rating) | pest or weed control at 125 g/ha (Kochia (Kochia scoparia) [6]; 125 g ai/ha, visual injury rating after approximately 10 d, read-out: Kochia plant response rating (0 to 100 scale, 0 is no effect, 100 is complete control)) | pest or weed control at 31 g/ha ([7]; 31 g ai/ha, 0 to 100 scale where 0 is no effect and 100 is complete control, read-out: Ragweed plant response rating) | pest or weed control at 125 g/ha ([7]; 125 g ai/ha, visual injury rating after approximately 10 d, read-out: Ragweed plant response rating (0 to 100 scale, 0 is no effect, 100 is complete control)) | pest or weed control at 31 g/ha ([8]; 31 g ai/ha, 0 to 100 scale where 0 is no effect and 100 is complete control, read-out: Ryegrass, Italian plant response rating) | pest or weed control at 125 g/ha ([8]; 125 g ai/ha, visual injury rating after approximately 10 d, read-out: Ryegrass, Italian plant response rating (0 to 100 scale, 0 is no effect, 100 is complete control)) | pest or weed control at 125 g/ha ([9]; 125 g ai/ha, visual injury rating after approximately 10 d, read-out: Foxtail, Giant plant response rating (0 to 100 scale, 0 is no effect, 100 is complete control)) | pest or weed control at 31 g/ha ([9]; 31 g ai/ha, 0 to 100 scale (0 no effect, 100 complete control), read-out: Plant response rating, Foxtail, Giant) | pest or weed control at 125 g/ha [10, 19] | pest or weed control at 31 g/ha [10, 20] | pest or weed control at 125 g/ha [11, 19] | pest or weed control at 31 g/ha [11, 20] | pest or weed control at 125 g/ha [12, 19] | pest or weed control at 31 g/ha [12, 20] | pest or weed control at 125 g/ha [13, 19] | pest or weed control at 31 g/ha [13, 20] | pest or weed control at 125 g/ha (Kochia (Kochia scoparia) [14]; [19]) | pest or weed control at 31 g/ha (Kochia (Kochia scoparia) [14]; [20]) | pest or weed control at 125 g/ha [15, 19] | pest or weed control at 31 g/ha [15, 20] | pest or weed control at 125 g/ha [16, 19] | pest or weed control at 31 g/ha [16, 20] | Corn plant response rating (crop injury, 0 = no effect, 100 = complete kill) at 125 g/ha (corn (Zea mays); [19]) | Corn plant response rating (crop injury, 0 = no effect, 100 = complete kill) at 31 g/ha (corn (Zea mays); [20]) | plant injury at 125 g/ha [17, 19] | plant injury at 31 g/ha [17, 20] | pest or weed control at 125 g/ha [18, 19] | pest or weed control at 31 g/ha [18, 20]
